We go through 44 compounds from patent publication US6452009B1, “4-unsubstituted dihydroisoquinolinone derivatives and combinatorial libraries thereof” (Lion Bioscience AG, priority 1999, dated 2002).

This experiment concerns Streptococcus pyogenes (ATCC #97-03 14289). Nature of the experiment: Anti-microbial screen (growth inhibition, OD 570 nm). The experiment is classed as cell-based. To be noted: ATCC97, compounds assayed at 170 μg/ml, growth in Todd Hewitt Broth read at 570 nm at 4 hrs, read-out: % Inhibition. The method, then:
Streptococcus pyogenes (ATCC #97-03 14289) are grown in Todd Hewitt Broth (THB) (Difco Laboratories #0492-17-6) overnight until they reach an optical density of (OD=0.636@570 nm) by reading 0.1 ml in a 96 well microtiter plate in a Molecular Devices Thermomax. This preparation is kept frozen as stocks in 30% v/v glycerol in 1.5 ml aliquots at −70° C. until use. Prior to screening, 1.5 ml aliquots are thawed and diluted into 50 ml THB. 200 μl of this dilution is added to 92 wells of microtiter plate. To three wells THB (200 μl) is added to serve as a blank and a sterility control. Test compounds in DMSO and appropriate concentrations of DMSO are added to Growth/Solvent Controls at 0 time. Plates are read at 0 time at 570 nm in the Molecular Devices plate reader to obtain compounds correction factors for insoluble or colored compounds. Plates are read again at 4 hrs.
Compounds are assayed at a concentration of 170 μg/ml. Percent inhibition for each compound is calculated using the following formulae:
Color correct=(O.D. 0 hr −Blank 0 hr)—(Solvent Control 0 hr−Blank 0 hr)
% Inhibition=100−(O.D. test compound 4 hr−Blank 4 hr−color correct) divided by (O.D. growth/solvent control 4 hr−Blank 4 hr)
In general, inhibition refers to the relative decrease from the control value, in per cent. Regarding `CN(C)CCN(CC(N)=O)C(=O)c1ccc(CN2C(=O)c3cc(NC(=O)c4cccc(C(F)(F)F)c4F)ccc3CC2c2ccccc2)cc1` (centres unmarked), the inhibition at 170 µg/mL was determined as 98.3%.
In the case of `CN(C)CCCOc1ccc(C2Cc3ccc(NC(=O)c4cc(C(F)(F)F)cc(C(F)(F)F)c4)cc3C(=O)N2Cc2ccc(C(=O)N(CC(N)=O)C3CC3)cc2)cc1` (centres unmarked) it was 99.9%.
The figure for `CN(C)CCN(CC(N)=O)C(=O)c1ccc(CN2C(=O)c3cc(NC(=O)c4cc(C(F)(F)F)cc(C(F)(F)F)c4)ccc3CC2c2ncc[nH]2)cc1` (centres unmarked) is 98.7%; for `CN(C)CCN(CC(N)=O)C(=O)c1ccc(CN2C(=O)c3cc(NC(=O)CCC4CCCC4)ccc3CC2c2ccc(F)c(F)c2)cc1` (centres unmarked) it is 99.9%.
In the case of `COc1cc(OC)cc(C2Cc3ccc(NC(=O)Cc4cccc(C(F)(F)F)c4)cc3C(=O)N2Cc2ccc(C(=O)N(CCN(C)C)CC(N)=O)cc2)c1` (centres unmarked) it was 99.2%; in that of `Cc1cc(C)c(C(=O)C(=O)Nc2ccc3c(c2)C(=O)N(CCC(=O)N(CCN(C)C)CC(N)=O)C(c2ccc(C(F)(F)F)cc2)C3)c(C)c1` (centres unmarked), 98.9%; in that of `Cc1cc(C)c(C(=O)C(=O)Nc2ccc3c(c2)C(=O)N(CCC(=O)N(CCN(C)C)CC(N)=O)C(c2ccc4ccccc4n2)C3)c(C)c1` (centres unmarked), 99.2%.
With `CN(C)CCN(CC(N)=O)C(=O)c1ccc(CN2C(=O)c3cc(NC(=O)CCC4CCCC4)ccc3CC2c2ccc3ccccc3n2)cc1` (centres unmarked), the inhibition at 170 µg/mL was determined as 98.6%.
The figure for `CN(C)CCCOc1ccc(C2Cc3ccc(NC(=O)CCC4CCCCC4)cc3C(=O)N2CCC(=O)N(CCN(C)C)CC(N)=O)cc1` (centres unmarked) is 99%.
For the compound `CCCC(CCC)C(=O)Nc1ccc2c(c1)C(=O)N(Cc1ccc(C(=O)N(CCN(C)C)CC(N)=O)cc1)C(c1cc(OC)cc(OC)c1)C2` (centres unmarked), the inhibition at 170 µg/mL came to 99.3%.
For `COc1ccc(Br)c(C(=O)Nc2ccc3c(c2)C(=O)N(Cc2ccc(C(=O)N(CCN(C)C)CC(N)=O)cc2)C(c2ccc(F)c(F)c2)C3)c1` (centres unmarked), the inhibition at 170 µg/mL came out at 99.5%.
Consider `NC(=O)CN(Cc1ccccc1)C(=O)CCN1C(=O)c2cc(NC(=O)CCC3CCCC3)ccc2CC1c1cccc2ccccc12` (centres unmarked), for which the inhibition at 170 µg/mL turned out to be 98.4%.
In the case of `Cc1nnsc1C(=O)Nc1ccc2c(c1)C(=O)N(CCC(=O)N(CCN(C)C)CC(N)=O)C(c1cccc3ccccc13)C2` (centres unmarked) it was 99%; in that of `CCCC(CCC)C(=O)Nc1ccc2c(c1)C(=O)N(CCC(=O)N(CCN(C)C)CC(N)=O)C(c1cc(OC)cc(OC)c1)C2` (centres unmarked), 98.2%.
The figure for `CN(C)CCCOc1ccc(C2Cc3ccc(NC(=O)Cc4cccc(C(F)(F)F)c4)cc3C(=O)N2CCC(=O)N(CC(N)=O)C2CC2)cc1` (centres unmarked) is 99.9%.
In the case of `COc1cc(OC)cc(C2Cc3ccc(NC(=O)c4ccc(OC(F)(F)F)cc4)cc3C(=O)N2CCC(=O)N(CCN(C)C)CC(N)=O)c1` (centres unmarked) it was 99.5%.
On to `CN(C)CCN(CC(N)=O)C(=O)CCN1C(=O)c2cc(NC(=O)C3(c4ccccc4)CC3)ccc2CC1c1ccccc1` (centres unmarked), for which the inhibition at 170 µg/mL was determined as 99.5%.
The figure for `CN(C)CCCOc1ccc(C2Cc3ccc(NC(=O)COc4ccc5ccccc5c4)cc3C(=O)N2Cc2ccc(C(=O)N(CCN(C)C)CC(N)=O)cc2)cc1` (centres unmarked) is 98.6%; for `NC(=O)CN(Cc1cccc(C(F)(F)F)c1)C(=O)CCN1C(=O)c2cc(NC(=O)CC3CC4CCC3C4)ccc2CC1c1cccnc1` (centres unmarked) it is 99.2%; for `Cc1cc(C)c(C(=O)C(=O)Nc2ccc3c(c2)C(=O)N(Cc2ccc(C(=O)N(CCN(C)C)CC(N)=O)cc2)C(c2ccc4ccccc4n2)C3)c(C)c1` (centres unmarked) it is 99.2%.
The figure for `CCCCCC(=O)Nc1ccc2c(c1)C(=O)N(CCC(=O)N(CC(N)=O)Cc1cccc(C(F)(F)F)c1)C(c1ccc(C(C)(C)C)cc1)C2` (centres unmarked) is 99.4%.
For `CN(C)CCCOc1ccc(C2Cc3ccc(NC(=O)C4(c5ccccc5)CC4)cc3C(=O)N2Cc2ccc(C(=O)N(CC(N)=O)Cc3cccc(C(F)(F)F)c3)cc2)cc1` (centres unmarked), the inhibition at 170 µg/mL stood at 98.8%.
In the case of `COc1cc(OC)cc(C2Cc3ccc(NC(=O)c4c(F)c(F)c(C)c(F)c4F)cc3C(=O)N2CCC(=O)N(CCN(C)C)CC(N)=O)c1` (centres unmarked), the inhibition at 170 µg/mL was found to be 98.2%.
Consider `CC(CC(=O)Nc1ccc2c(c1)C(=O)N(Cc1ccc(C(=O)N(CCN(C)C)CC(N)=O)cc1)C(c1ccc(C(F)(F)F)cc1)C2)CC(C)(C)C` (centres unmarked), for which the inhibition at 170 µg/mL stood at 98.7%.
For the compound `CC1CCC(C(=O)Nc2ccc3c(c2)C(=O)N(Cc2ccc(C(=O)N(CCN(C)C)CC(N)=O)cc2)C(c2cccc(C#N)c2)C3)CC1` (centres unmarked), the inhibition at 170 µg/mL stood at 98.5%.
In the case of `CC(CC(=O)Nc1ccc2c(c1)C(=O)N(Cc1ccc(C(=O)N(CC(N)=O)Cc3cccc(C(F)(F)F)c3)cc1)C(c1ccc(F)c(F)c1)C2)CC(C)(C)C` (centres unmarked) it was 99.3%; in that of `Cc1ccc(C2Cc3ccc(NC(=O)c4cccnc4Cl)cc3C(=O)N2Cc2ccc(C(=O)N(CCN(C)C)CC(N)=O)cc2)cc1` (centres unmarked), 98.8%.
Consider `CN(C)CCCOc1ccc(C2Cc3ccc(NC(=O)c4ccc(I)cc4)cc3C(=O)N2CCC(=O)N(CC(N)=O)Cc2cccc(C(F)(F)F)c2)cc1` (centres unmarked), for which the inhibition at 170 µg/mL turned out to be 98.8%.
The figure for `COc1cc(OC)cc(C2Cc3ccc(NC(=O)CCC4CCCC4)cc3C(=O)N2CCC(=O)N(CCN(C)C)CC(N)=O)c1` (centres unmarked) is 99.5%.
The figure for `CSc1ccccc1C(=O)Nc1ccc2c(c1)C(=O)N(Cc1ccc(C(=O)N(CCN(C)C)CC(N)=O)cc1)C(c1ccc(C(F)(F)F)cc1)C2` (centres unmarked) is 98.3%.
The figure for `CN(C)CCN(CC(N)=O)C(=O)CCN1C(=O)c2cc(NC(=O)CC3CC4CCC3C4)ccc2CC1c1ccc(F)c(F)c1` (centres unmarked) is 98.4%; for `CN(C)CCN(CC(N)=O)C(=O)CCN1C(=O)c2cc(NC(=O)COc3ccc4ccccc4c3)ccc2CC1c1ccc(F)c(F)c1` (centres unmarked) it is 99.2%; for `NC(=O)CN(C(=O)CCN1C(=O)c2cc(NC(=O)/C=C/c3ccccc3C(F)(F)F)ccc2CC1c1cccc(Oc2ccc(Cl)c(Cl)c2)c1)C1CC1` (centres unmarked) it is 98.5%.
For `COc1cccc(CN(CC(N)=O)C(=O)CCN2C(=O)c3cc(NC(=O)CC4CC5CCC4C5)ccc3CC2c2ccc(OCCCN(C)C)cc2)c1` (centres unmarked), the inhibition at 170 µg/mL was 98.8%.
In the case of `CN(C)CCCOc1ccc(C2Cc3ccc(NC(=O)COc4ccc5ccccc5c4)cc3C(=O)N2CCC(=O)N(CC(N)=O)Cc2cccc(C(F)(F)F)c2)cc1` (centres unmarked) it was 99.6%.
In the case of `CN(C)CCN(CC(N)=O)C(=O)CCN1C(=O)c2cc(NC(=O)C3(c4ccccc4)CC3)ccc2CC1c1cccc2ccccc12` (centres unmarked) it was 99%.
For the compound `CN(C)CCN(CC(N)=O)C(=O)CCN1C(=O)c2cc(NC(=O)c3ccc(I)cc3)ccc2CC1c1ccc2ccccc2n1` (centres unmarked), the inhibition at 170 µg/mL stood at 99.5%.
For `CCCCCC/C=C/C(=O)Nc1ccc2c(c1)C(=O)N(CCC(=O)N(CCN(C)C)CC(N)=O)C(c1ccccc1)C2` (centres unmarked), the inhibition at 170 µg/mL turned out to be 99.8%.
The figure for `COc1cc(OC)cc(C2Cc3ccc(NC(=O)C(=O)c4c(C)cc(C)cc4C)cc3C(=O)N2CCC(=O)N(CCN(C)C)CC(N)=O)c1` (centres unmarked) is 99.5%.
`CN(C)CCN(CC(N)=O)C(=O)CCN1C(=O)c2cc(NC(=O)CC3CC4CCC3C4)ccc2CC1c1ccc2ccccc2n1` (centres unmarked): the inhibition at 170 µg/mL was 98.5%.
In the case of `COc1cc(OC)cc(C2Cc3ccc(NC(=O)C4CCC(C)CC4)cc3C(=O)N2CCC(=O)N(CCN(C)C)CC(N)=O)c1` (centres unmarked) it was 99.8%; in that of `CN(C)CCN(CC(N)=O)C(=O)CCN1C(=O)c2cc(NC(=O)c3ccc(C#N)cc3)ccc2CC1c1ccc(C(C)(C)C)cc1` (centres unmarked), 98.5%; in that of `Cc1cnc(C(=O)Nc2ccc3c(c2)C(=O)N(CCC(=O)N(CCN(C)C)CC(N)=O)C(c2ccc(C(C)(C)C)cc2)C3)cn1` (centres unmarked), 98.5%.
The figure for `CN(C)CCN(CC(N)=O)C(=O)c1ccc(CN2C(=O)c3cc(NC(=O)CC4CC5CCC4C5)ccc3CC2c2cccc3ccccc23)cc1` (centres unmarked) is 99.5%.
